Data taken from patent publication US20090226427A1, “NOVEL PHARMACEUTICAL COMPOSITIONS FOR MODULATING ANGIOGENESIS” (priority 1999, published 2009).

Key:
[1] = tested on: phospho-Ser473-Akt; experiment: phospho-Ser473-Akt immunoblot, VEGF-exposed HUVEC; type: cell-based, human
[2] = tested on: phospho-Ser1177-eNOS; experiment: phospho-Ser1177-eNOS immunoblot, VEGF-exposed HUVEC; type: cell-based, human
[3] = tested on: CaM/eNOS interaction; experiment: CaM/eNOS co-immunoprecipitation, EC; type: cell-based, human
Procedure: (§1) Immunoprecipitation, Immunoblotting, and Kinase Assay was performed as follows: EC were homogenized in a buffer containing phosphatase and protease inhibitors (Garcia-Cardena, G., et al. (1998) Nature 392, 821-824), and processed for immunoblotting or immunoprecipitation in a octyl glucoside-containing buffer as described previously (Feron, O., et al. (1998) J. Biol. Chem. 273, 3125-3128). Caveolin, eNOS, and hsp90 antibodies were from BD Transduction Labs, Akt and phospho-Akt antibodies from BD PharMingen, CaM antibody from Santa Cruz, and phospho-eNOS antibody from NEB Cell Signaling Technology. Akt activity was measured using a non-radioactive immunoprecipitation kinase assay kit (NEB Cell Signaling Technology).
In order to further dissect the calcium dependence of the Akt-mediated phosphorylation of eNOS, the eNOS/CaM association was examined after 2 and 30 min VEGF exposure, i.e. at the maximum of the calcium transient and after the return of [Ca^2+]i to its basal level, respectively.

[4] = tested on: eNOS; experiment: nitrite (NO2-) detection, VEGF-stimulated EC; type: cell-based, human
Procedure: Nitrite was Detected as follows: Quantitative analysis of nitrite (NO2^−) was used as an index of NO production. Briefly, aliquots of the medium bathing intact EC were collected at the time intervals corresponding to either 0-2 or 5-30 min of VEGF exposure. For the latter period, the medium bathing the VEGF-stimulated cells for the first 5 min was discarded and replaced by fresh VEGF-containing medium for the next 25 min. […] Data are normalized for the amount of protein in the dish, and are presented for convenience as mean+/−S.E. Statistical analyses were made using Student's t test or one-way ANOVA where appropriate.

[5] = tested on: hsp90/eNOS interaction; experiment: hsp90/eNOS co-immunoprecipitation, VEGF-exposed HUVEC; type: cell-based, human
[6] = tested on: [Ca^2+]i; experiment: Fura-2 measurement of [Ca2+]i in VEGF-exposed EC; type: cell-based, human
Procedure: Alternating wavelength excitation of 340 and 380 nm was provided by a motorized filter wheel. The image pairs monitored by the Ionoptix Myocam camera were processed by the IonWizard software (Ionoptix, Milton, Mass.) and are presented as the fluorescence ratio (340/380 nm), a direct index to the [Ca^2+]i. In some experiments, Fura-2-loaded cells were preincubated with the intracellular calcium chelator BAPTA/AM (20 μM).

[7] = tested on: caveolin-eNOS complex; experiment: caveolin/eNOS co-immunoprecipitation, VEGF-exposed HUVEC; type: cell-based, human; conditions: for effect on VEGF-induced caveolin/eNOS dissociation: geldanamycin, BAPTA
Procedure: as §1, with “(1998) J. Biol. Chem. 273, 30249-30254) and plated at 5×10^5 cells/ml. […] Immunoprecipitation,” for “Immunoprecipitation,”, “(Garcia-[…].,” for “(Garcia-Cardena, G.,”, “Technology). […] First, extracts were immunoprecipitated with caveolin antibodies and the immuno-precipitation immunoblotted with eNOS antibodies (FIG. 10A, top). […] Experiments were then performed to determine the time course of hsp90 interaction with eNOS.” for “Technology).”

[8] = tested on: Akt/eNOS interaction; experiment: Akt/eNOS co-immunoprecipitation, VEGF-exposed HUVEC; type: cell-based, human
Procedure: Immunoprecipitation, Immunoblotting, and Kinase Assay was performed as follows: EC were homogenized in a buffer containing phosphatase and protease inhibitors (Garcia-[…] ., et al. (1998) Nature 392, 821-824), and processed for immunoblotting or immunoprecipitation in a octyl glucoside-containing buffer as described previously (Feron, O., et al. (1998) J. Biol. Chem. 273, 3125-3128). Caveolin, eNOS, and hsp90 antibodies were from BD Transduction Labs, Akt and phospho-Akt antibodies from BD PharMingen, CaM antibody from Santa Cruz, and phospho-eNOS antibody from NEB Cell Signaling Technology. Akt activity was measured using a non-radioactive immunoprecipitation kinase assay kit (NEB Cell Signaling Technology). It was further analyzed whether eNOS and Akt interact together in eNOS/Akt co-immunoprecipitation experiments. […] In an attempt to appreciate the proportion of eNOS involved in the geldanamycin-sensitive recruitment of Akt, the reverse co-immunoprecipitation assay was further developed: hsp90 and Akt antibodies were used to immunoprecipitate eNOS (which was detected by immunoblotting) and the supernatants of these immunoprecipitations were checked for residual eNOS presence; for this purpose, the immunoprecipitated supernatants were submitted to a second immunoprecipitation with eNOS antibodies.

[9] = tested on: phospho-Ser1177-eNOS; experiment: phospho-Ser1177-eNOS immunoblot, statin-exposed HUVECs; conditions: for effect on statin-induced phosphorylation of eNOS: atorvastatin 1 μmol/L, LY294002 10 μmol/L, geldanamycin 1 μg/mL, mevalonate 1 mmol/L, BAPTA-AM 20 μmol/L, CSD peptide loading
[10] = tested on: phospho-Akt/eNOS interaction; experiment: eNOS/phospho-Akt co-immunoprecipitation, statin-exposed HUVECs; conditions: co-IP
[11] = tested on: HUVECs; experiment: angiogenesis assay on Matrigel, HUVECs; type: cell-based, human; conditions: HUVECs on Matrigel, atorvastatin
Procedure: (§2) Tube formation was observed using an inverted phase-contrast microscope (Zeiss Axiovert 25), and images were captured with a videographic system (Pixera Pro). The tube formation index was determined by measuring the length of tubes in random fields from each well using the Image J program. Statistical analyses were made using the Student t test or one-way ANOVA where appropriate.
Transfection and peptide loading was performed by reversible permeabilization: HUVECs were transfected with the hsp90 cDNA (a gift from Dr W. C. Sessa, Yale University, New Haven, Conn.) using Lipofectamine (Invitrogen) according to the manufacturer's protocol; an irrelevant plasmid encoding β-galactosidase was used as a control to obtain identical amounts of transfected DNA in each condition. HUVECs were also reversibly permeabilized, as previously reported (Feron et al. J Biol. Chem. 1998; 273:30249-30254), to introduce synthetic peptides derived from the caveolin scaffolding domain (CSD).

[12] = tested on: phospho-Ser473-Akt; experiment: phospho-Ser473-Akt immunoblot, statin-exposed HUVECs; conditions: for (basal) level of Akt phosphorylation: phosphatase inhibitor
[13] = tested on: endothelial cells; experiment: sandwich Matrigel model of endothelial tube formation; type: cell-based
Procedure: Indeed, while endothelial cells culture leads to pavimentous organization when plated on dishes (FIG. 1A), endothelial cells progressively form tubes when cultured within gels of collagen, fibrin or Matrigel®. Accordingly, in the “3-D model”, endothelial cells are mixed to the matrix before gelification and tube-like structures are obtained after 48-72 hours (FIG. 1B); this model, however, reduces the efficiency of transfection. In the “sandwich model”, cells are first cultured to confluence on a first layer of matrix, and are then covered by a second matrix layer; cells are easily transfected in the interval preceding the addition of the upper layer. The latter technique allows the formation of endothelial tubes in 3-6 hours; the tube structures are mature 12 hours after induction (FIG. 1C) and then start to regress.
Of note, when endothelial cells were transfected with an irrelevant construct (β-galactosidase-encoding), no change in the rate and extent of tube formation was observed.

[14] = tested on: wild-type eNOS; experiment: nitrite production in transfected COS cells, wild-type eNOS; type: cell-based
[15] = tested on: AoECs; experiment: aortic ring culture in Matrigel, AoEC network organization; type: cell-based, rat; conditions: L-NAME added at the time of serum deprivation
Procedure: as §2, with “Cultures of AoECs and CoMECs organized in a network were then challenged at day 5 by incubation under serum-free conditions for 24 to 48 hours with or without some of the drugs mentioned above. […] Tube” for “Tube”

[16] = tested on: CMECs; experiment: angiogenesis assay on Matrigel, CMECs; type: cell-based, Mouse; conditions: CMECs; L-NAME 5 mmol/L coincubation; geldanamycin 1 μg/mL 30-minute preincubation
Procedure: as §2

[17] = tested on: eNOS/hsp90 interaction; experiment: eNOS/hsp90 co-immunoprecipitation, statin-exposed HUVECs; conditions: mevalonate 1 mmol/L, BAPTA-AM 20 μmol/L, CSD peptide loading
[18] = tested on: caveolin; experiment: caveolin immunoblot, AoECs; type: cell-based, rat; conditions: AoECs; culture medium supplemented with mevalonate
Excerpt: (§3) Therefore, the effects of statin exposure on the absolute amounts of caveolin in AoECs and CMECs was examined.

[19] = tested on: caveolin; experiment: caveolin immunoblot, AECs; type: cell-based, Bovine; conditions: AECs; culture medium supplemented with mevalonate
Excerpt: as §3

[20] = tested on: phospho-GSK-3; experiment: phospho-GSK-3 immunoblot, insulin-stimulated cardiac myocytes; type: cell-based; conditions: neonatal mouse cardiac myocytes
Procedure: (§4) Cell Culture was performed as follows: Freshly isolated human umbilical vein EC (HUVEC) were cultured to confluence in 100-mm dishes in a 2:1 mixture of M199/endothelial cell basal medium containing 10% serum; control experiments were also performed with myocytes isolated from neonatal mice as previously detailed (Feron, et al. (1998) J. Biol. Chem. 273, 30249-30254) and plated at 5×10^5 cells/ml. Serum-starved EC and myocytes were exposed for the indicated periods of time to VEGF (50 ng/ml) and insulin (12.5 milliunits/ml), respectively, in the presence or absence of various pharmacological modulators (30-60 min preincubation with 1 μg/ml geldanamycin (Invitrogen Life Technolo-gies) or 10 μM LY294002 (Sigma)).
(§5) Accordingly, neonatal mouse cardiac myocytes were exposed to insulin (a known activator of Akt in myocytes) for 5 min with or without geldanamycin and examined the phosphorylation status of Akt and eNOS. […] Myocytes show native expression of GSK-3 and were used to determine whether geldanamycin could influence the phosphorylation of this other Akt substrate.

[21] = tested on: phospho-Akt; experiment: phospho-Akt immunoblot, insulin-stimulated cardiac myocytes; type: cell-based; conditions: neonatal mouse cardiac myocytes
Procedure: as §4, §5

[22] = tested on: phospho-eNOS; experiment: phospho-eNOS immunoblot, insulin-stimulated cardiac myocytes; type: cell-based; conditions: neonatal mouse cardiac myocytes
Procedure: as §4, §5

[23] = nitrite production normalized per min
[24] = eNOS antibodies, geldanamycin 1 μg/ml 30 min, BAPTA

Molecule: VEGF
- time at which Akt phosphorylation was already observed ([1]; VEGF exposure): 30 s
- time to maximal eNOS phosphorylation ([2]; VEGF exposure): at least 5 min
- persistence of the CaM/eNOS association ([3]; VEGF): at least 30 min
- time at which CaM could be detected in the eNOS immune complex ([3]; after VEGF stimulation): 2 min
- rate of NO2- produced in the first 5-min interval versus the following 30 min ([4]; after VEGF stimulation, preliminary experiments): 2-3 fold
- absolute amount of NO2^− produced in the 5-30-min period versus the first 2-min VEGF exposure ([4]; control conditions): 5.5 fold
- amounts of NO2^− in the 55-60-min interval ([4]; following VEGF stimulation): below the detection level
- proportion of eNOS pool engaged in hsp90 interaction ([5]; 5 min VEGF, reverse immunoprecipitation with hsp90 antibodies): around half of the total eNOS pool
- cell exposure needed for hsp90 co-immunoprecipitation with eNOS ([5]; VEGF 50 ng/ml): ≥ 2 min
- time to peak of calcium transient ([6]; VEGF exposure): 1 min
- time to complete dissociation of eNOS from caveolin ([7]; VEGF 50 ng/ml): ≤ 2 min
- time for which dissociation was maintained ([7]; in the presence of VEGF): at least 30 min
- proportion of eNOS pool engaged in Akt interaction ([8]; 5 min VEGF, reverse immunoprecipitation with Akt antibodies): around half of the total eNOS pool
- time from which Akt association to eNOS could be detected ([8]; VEGF stimulation): ≥ 2 min

Molecule: C=C1[C@@H](O)[C@@H]2O[C@]3(CC[C@H](/C=C/[C@@H](C)[C@@H]4CC(C)=C[C@@]5(O[C@H](C[C@@](C)(O)C(=O)O)CC[C@H]5O)O4)O3)CC[C@H]2O[C@@H]1[C@@H](O)C[C@H](C)[C@H]1O[C@@]2(CCCCO2)CC[C@H]1C [okadaic acid]
- increase of statin-induced phosphorylation of eNOS in the presence of okadaic acid ([9]; okadaic acid versus okadaic acid+statin, 100 nmol/L): ~3 fold
- effect on phospho-Akt/eNOS interaction upon statin [10]: promoted
- effect on statin-induced tube formation [11]: stimulated basal and statin-induced tube formation
- (basal) level of Akt phosphorylation [12]: dramatically increased

Molecule: CC(=O)N[C@@H](C(=O)O)C(C)(C)SN=O (racemic) [SNAP]
- effect on the anti-angiogenic effect observed in caveolin-overexpressing cells ([13]; caveolin-overexpressing cells): correct this anti-angiogenic effect
- endothelial tube formation ([13]; non-transfected cells): accelerated the endothelial tube formation

Molecule: calyculin
- (basal) level of Akt phosphorylation [12]: stimulated Akt phosphorylation

Molecule: COC1=C2C[C@@H](C)C[C@H](OC)[C@H](O)[C@@H](C)/C=C(\C)[C@H](OC(N)=O)[C@@H](OC)/C=C\C=C(/C)C(=O)NC(=CC1=O)C2=O [geldanamycin]
- effect on early VEGF-induced eNOS activation (0-2 min) [4, 23]: no significant effect
- effect on VEGF-induced caveolin/eNOS dissociation [7]: no significant effect
- part of the recombinant hsp90- and hsp90/Akt-mediated increase in NO production blocked ([14]; COS cells, preincubation): 70-95%
- part of the Akt-dependent increase in nitrite production blocked ([14]; WT-eNOS COS cells pretreated for 30 min): around 70%

Molecule: CNc1ccc2oc(C[C@H]3O[C@@]4(CC[C@H]3C)O[C@H]([C@H](C)C(=O)c3ccc[nH]3)[C@H](C)C[C@H]4C)nc2c1C(=O)O [A23187]
- eNOS/CaM association ([3]; short exposure to A23187): led to the early association between eNOS and CaM
- early NO2^− production (0-2 min) relative to the level obtained with VEGF ([4]; 1 μM A23187 pulse for 2 min): ~3 fold
- long-term NO2^− production compared with VEGF-exposed cells ([4]; 1 μM A23187 pulse for 2 min, then Ca^2+-free medium): significantly lower

Molecule: COC(=O)[C@@H](N)CCCNC(=N)N[N+](=O)[O-] [L-NAME, N^G-nitro-L-arginine methyl ester]
- effect on statin stabilisation of the network [15]: abrogated the beneficial effects of statin pretreatment
- effect on atorvastatin-induced tube formation [16]: almost completely blocked

Molecule: CC(O)(CCO)CC(=O)O (stereo not shown) [mevalonate]
- effect on statin-induced phosphorylation of eNOS [9]: reverse the stimulatory effect
- effect on phospho-Akt/eNOS interaction upon statin [10]: reverse the stimulatory effect
- effect on atorvastatin-stimulated eNOS/hsp90 interaction [17]: reverse the stimulatory effect
- effect on statin-induced reduction in caveolin abundance [18]: blocked the statin-induced reduction in caveolin abundance
- effect on statin-induced reduction in caveolin abundance [19]: blocked the statin-induced reduction in caveolin abundance

Molecule: CC(=O)OCOC(=O)CN(CC(=O)OCOC(C)=O)c1ccccc1OCCOc1ccccc1N(CC(=O)OCOC(C)=O)CC(=O)OCOC(C)=O [BAPTA-AM]
- effect on statin-induced phosphorylation of eNOS [9]: abrogated
- effect on VEGF-induced Akt phosphorylation ([1]; LY294002 10 μM 1-h preincubation, geldanamycin 1 μg/ml, BAPTA): not altered
- effect on VEGF-induced eNOS phosphorylation ([2]; LY294002 10 μM 1-h preincubation, geldanamycin 1 μg/ml, BAPTA-AM 20 μM): prevented
- effect on VEGF-induced CaM/eNOS interaction ([3]; BAPTA pretreatment): completely abrogated
- level of eNOS activation for the 5-30-min period ([4]; BAPTA added after the early phase (at t=5 min), versus vehicle): no significant reduction
- effect on early VEGF-induced eNOS activation (0-2 min) [4, 23]: sufficient to block
- effect on late VEGF-induced eNOS activation (5-30 min) [4, 23]: sufficient to block
- effect on atorvastatin-stimulated eNOS/hsp90 interaction [17]: abrogated
- effect on VEGF-induced hsp90/eNOS co-immunoprecipitation [5, 24]: completely prevented
- effect on VEGF-evoked calcium transient ([6]; 20 μM BAPTA-AM): completely abrogated
- effect on the basal level of [Ca^2+]i ([6]; 20 μM BAPTA-AM): no effect
- effect on statin-induced phosphorylation of Akt ([12]; CSD peptide loading, BAPTA-AM added 30 minutes before statin): blocked
- effect on VEGF-induced caveolin/eNOS dissociation [7]: complete inhibition
- effect on VEGF-induced Akt/eNOS co-immunoprecipitation [8, 24]: prevented

Molecule: insulin: a known activator of Akt in myocytes
- GSK-3 phosphorylation [20]: stimulatory effect
- Akt phosphorylation [21]: stimulatory effect
- eNOS phosphorylation [22]: stimulatory effect
